Where “and” joins values, the source holds several entries; their conditions need not be identical. Equal entries are not always repeated. Starred links: 1 amine or outer side, 2 acyl side, 3 side chain; linkers in the order of their positions; H or OH if unused. Positions of bridges follow the written chain, without caps; N, C: chain ends. Non-standard residues stand in square brackets, D forms with d. Residues, ends and D or L forms follow the SMILES beside them. Chains are numbered I, II in the order given. Actinocin(9to1) = Cc1c2oc3c(C)ccc(C(=O)[*:1])c3nc-2c(C(=O)[*:2])c(N)c1=O; aThr = C[C@H](O)[C@H](N)C(=O)O; NMeV = CN[C@H](C(=O)O)C(C)C; Sar = CNCC(=O)O
System: BDF1 mice, Adenocarcinoma 755 s.c., tumor weight T/C
Experiment: NCI In Vivo Anticancer Drug Screen. Data for tumor model Adenocarcinoma 755 (subcutaneous) in B6D2F1 (BDF1) mice
Conditions: endpoint: mean tumor weight, schedule: Q01DX011 (ip), higher = larger tumour
Outline: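 Compound activity was tested in mice carrying transplanted tumors. Survival or tumor size was measured, and each value is the treated-group measurement divided by that of the vehicle-treated control group (T/C).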

[1] = dose: 75.0 mg/kg/injection, vehicle: carboxymethylcellulose (CMC)
[2] = dose: 5.0 mg/kg/injection, vehicle: methylcellulose (MC)
[3] = dose: 10.0 mg/kg/injection, vehicle: methylcellulose (MC)
[4] = dose: 20.0 mg/kg/injection, vehicle: methylcellulose (MC)
[5] = dose: 30.0 mg/kg/injection, vehicle: carboxymethylcellulose (CMC)

Cc1c2oc3c(C)ccc(C(=O)N[C@@H]4C(=O)N[C@H](C(C)C)C(=O)N5CCC[C@H]5C(=O)N(C)CC(=O)N(C)[C@@H](C(C)C)C(=O)O[C@H]4C)c3nc-2c(C(=O)N[C@@H]2C(=O)N[C@H](C(C)C)C(=O)N3CCC[C@H]3C(=O)N(C)CC(=O)N(C)[C@@H](C(C)C)C(=O)O[C@H]2C)c(N)c1=O (I: [aThr][dV]P[Sar][NMeV] / II: [aThr][dV]P[Sar][NMeV]; ester I:1-I:C, II:1-II:C; linker I:N-II:N via Actinocin(9to1))
T/C (dose: 0.02 mg/kg/injection, vehicle: saline): 2 % of control
T/C (dose: 0.03 mg/kg/injection, vehicle: carboxymethylcellulose (CMC)): 9 % of control
T/C (dose: 0.04 mg/kg/injection, vehicle: carboxymethylcellulose (CMC)): 105 % of control
T/C (dose: 0.08 mg/kg/injection, vehicle: carboxymethylcellulose (CMC)): 39 % of control
T/C (dose: 12.0 micrograms/kg/injection, vehicle: carboxymethylcellulose (CMC)): 101 % of control
T/C (dose: 15.0 micrograms/kg/injection, vehicle: carboxymethylcellulose (CMC)): 82 % of control
T/C (dose: 24.0 micrograms/kg/injection, vehicle: carboxymethylcellulose (CMC)): 26 % of control and 43 % of control
T/C (dose: 40.0 micrograms/kg/injection, vehicle: carboxymethylcellulose (CMC)): 4 % of control and 13 % of control
T/C (dose: 48.0 micrograms/kg/injection, vehicle: carboxymethylcellulose (CMC)): 10 % of control and 11 % of control
T/C (dose: 53.0 micrograms/kg/injection, vehicle: carboxymethylcellulose (CMC)): 3 % of control and 4 % of control
T/C (dose: 95.0 micrograms/kg/injection, vehicle: carboxymethylcellulose (CMC)): 2 % of control

C=CC(O)CN1CC1=C (stereo unspecified) (tested in a mixture with another compound)
T/C (dose: 1.9 mg/kg/injection, vehicle: methylcellulose (MC)): 95 % of control
T/C (dose: 3.75 mg/kg/injection, vehicle: methylcellulose (MC)): 121 % of control
T/C (dose: 7.5 mg/kg/injection, vehicle: methylcellulose (MC)): 106 % of control
T/C (dose: 15.0 mg/kg/injection, vehicle: methylcellulose (MC)): 49 % of control

O=c1[nH]c2nc(Cl)nc(Cl)c2[nH]1
T/C (dose: 25.0 mg/kg/injection, vehicle: carboxymethylcellulose (CMC)): 54 % of control
T/C [1]: 117 % of control
T/C (dose: 225.0 mg/kg/injection, vehicle: carboxymethylcellulose (CMC)): 92 % of control

c1ccc2nc(-c3cc4ccccc4s3)ccc2c1
T/C (dose: 133.0 mg/kg/injection, vehicle: carboxymethylcellulose (CMC)): 42 % of control
T/C (dose: 133.0 mg/kg/injection, vehicle: saline): 42 % of control
T/C (dose: 200.0 mg/kg/injection, vehicle: carboxymethylcellulose (CMC)): 53 % of control
T/C (dose: 200.0 mg/kg/injection, vehicle: saline): 39 % of control
T/C (dose: 300.0 mg/kg/injection, vehicle: carboxymethylcellulose (CMC)): 24 % of control
T/C (dose: 300.0 mg/kg/injection, vehicle: saline): 34 % of control
T/C (dose: 450.0 mg/kg/injection, vehicle: saline): 21 % of control

CN(C)c1ccc(/C=C\c2ccnc3ccccc23)cc1
T/C (dose: 3.1 mg/kg/injection, vehicle: water): 100 % of control
T/C [2]: 96 % of control
T/C (dose: 6.25 mg/kg/injection, vehicle: water): 97 % of control
T/C [3]: 96 % of control
T/C (dose: 12.5 mg/kg/injection, vehicle: water): 90 % of control
T/C [4]: 86 % of control
T/C (dose: 25.0 mg/kg/injection, vehicle: water): 81 % of control
T/C (dose: 50.0 mg/kg/injection, vehicle: water): 55 % of control
T/C (dose: 100.0 mg/kg/injection, vehicle: water): 64 % of control

NNC(=O)c1ccncc1
T/C (dose: 15.13 mg/kg/injection, vehicle: carboxymethylcellulose (CMC)): 116 % of control
T/C (dose: 17.62 mg/kg/injection, vehicle: carboxymethylcellulose (CMC)): 160 % of control
T/C (dose: 19.25 mg/kg/injection, vehicle: carboxymethylcellulose (CMC)): 112 % of control
T/C (dose: 30.25 mg/kg/injection, vehicle: carboxymethylcellulose (CMC)): 109 % of control
T/C (dose: 38.5 mg/kg/injection, vehicle: carboxymethylcellulose (CMC)): 78 % of control
T/C (dose: 60.5 mg/kg/injection, vehicle: carboxymethylcellulose (CMC)): 121 % of control
T/C (dose: 70.5 mg/kg/injection, vehicle: carboxymethylcellulose (CMC)): 178 % of control
T/C (dose: 77.0 mg/kg/injection, vehicle: carboxymethylcellulose (CMC)): 122 % of control
T/C (dose: 121.0 mg/kg/injection, vehicle: carboxymethylcellulose (CMC)): 100 % of control
T/C (dose: 141.0 mg/kg/injection, vehicle: carboxymethylcellulose (CMC)): 202 % of control

Cc1cc(NC(=O)c2ccc(C(=O)Nc3ccc(N=Nc4cc(S(=O)(=O)O)c5cccc(S(=O)(=O)O)c5c4)c(C)c3)cc2)ccc1N=Nc1cc(S(=O)(=O)O)c2cccc(S(=O)(=O)O)c2c1
T/C [5]: 114 % of control

Nc1ncnc2c1cnn2Cc1ccc(Cl)cc1
T/C (dose: 9.5 mg/kg/injection, vehicle: carboxymethylcellulose (CMC)): 98 % of control
T/C [1]: 38 % of control

Clc1ccc(N2CCN(CCCN3CCN(c4cccc(Cl)c4)CC3)CC2)cc1
T/C [2]: 71 % of control
T/C (dose: 8.0 mg/kg/injection, vehicle: carboxymethylcellulose (CMC)): 83 % of control
T/C [3]: 62 % of control and 72 % of control
T/C (dose: 12.0 mg/kg/injection, vehicle: carboxymethylcellulose (CMC)): 103 % of control
T/C (dose: 18.0 mg/kg/injection, vehicle: carboxymethylcellulose (CMC)): 40 % of control
T/C [4]: 65 % of control
T/C (dose: 27.0 mg/kg/injection, vehicle: carboxymethylcellulose (CMC)): 46 % of control
T/C [5]: 47 % of control
T/C (dose: 40.0 mg/kg/injection, vehicle: methylcellulose (MC)): 25 % of control
T/C (dose: 60.0 mg/kg/injection, vehicle: carboxymethylcellulose (CMC)): 26 % of control

O=C(O)C(CS(=O)(=O)O)Nc1ncnc2nc[nH]c12 (stereo unspecified)
T/C (dose: 3.1 mg/kg/injection, vehicle: saline): 65 % of control
T/C (dose: 6.2 mg/kg/injection, vehicle: saline): 40 % of control
T/C (dose: 12.5 mg/kg/injection, vehicle: saline): 40 % of control and 43 % of control
T/C (dose: 18.75 mg/kg/injection, vehicle: saline): 38 % of control
T/C (dose: 25.0 mg/kg/injection, vehicle: saline): 10 % of control
T/C (dose: 28.12 mg/kg/injection, vehicle: saline): 12 % of control
T/C (dose: 45.0 mg/kg/injection, vehicle: saline): 4 % of control
T/C (dose: 75.0 mg/kg/injection, vehicle: saline): 7 % of control
T/C (dose: 225.0 mg/kg/injection, vehicle: saline): 7 % of control

Source: PubChem BioAssay AID180 (DTP/NCI, 2004)
